Results from patent publication US4690938A, “Anti-hypertensive agents” (University of Miami, priority 1979, dated 1987).

Legend:
[1] = biological target: T1, angiotensin converting enzyme (human urinary ACE) (Homo sapiens, UniProt P12821); assay: ACE activity assay: hydrolysis of Benzoyl-GlyHisLeu by ACE purified from human urine; assay type: biochemical; conditions: Benzoyl-GlyHisLeu 1×10^-4 M, pH 8.0, 37° C, read-out: I50
T1 construct: ACE purified from human urine; from tissue; host or cells: human urine
Text: The role of ACE in the pathogenesis of hypertension has prompted a search for inhibitors of the enzyme that could act as antihypertensive drugs. See for example U.S. Pat. Nos. 3,891,616, 3,947,575, 4,052,511 and 4,053,651. […]. No. 4,046,889 to Ondetti et al., issued Sept. 6, 1977, and in scientific articles by Cushman, D. W. et al., Biochemistry 16, 5484 (1977), and by Ondetti, M. et al., Science 196, 441 (1977). […]. These factors include the source of enzyme, its purity, the substrate used and its concentration, and the composition of the assay buffer. All I50 data reported herein have been performed with the same assay system and same enzyme (human urinary ACE) and with an approximately 1/2 Km level of substrate and are therefore internally consistent. Discrepancies with data obtained by other workers may be observed. Indeed such discrepancies do exist in the literature, for unknown reasons. See, for example, the I50 values for BPP9a reported by Cushman, D. W., et al., Experientia 29, 1032 (1973) and by Dorer, F. E., et al., Biochim.Biophys.Acta 429, 220 (1976).
For most experiments described herein, the enzyme was assayed in 0.05M Hepes buffer, pH 8.0 containing 0.1M NaCl and 0.75M Na2 SO4. […]
The inhibitory potency of N^α-[ 3-(N^α -benzoylglycylthio)-2-D-L-proline in vitro was measured in the assay described in Example 1. […]

[2] = tested on: mean arterial blood pressure response to angiotensin I; assay: Intravenous effectiveness: blood pressure response to angiotensin I in anesthetized rats; assay type: in vivo, rat; conditions: i.v.; angiotensin I 400 ng/kg
Description: Rats (210-290 g body weight) were fasted overnight and then anesthetized with intraperitoneal pentobarbital, 50-60 mg/kg. Tracheostomy was performed and the animals were ventilated mechanically. A cannula was inserted into a femoral vein for injection of angiotensin I, and a second cannula was inserted into a common carotid artery for direct measurement of arterial blood pressure. Heparin, 1,000 units, was injected via the femoral vein to prevent coagulation. Blood pressure was measured with a pressure transducer connected to a polygraph. The rats were injected with […] of angiotensin I in 20 μl of 0.9 g % NaCl; an amount of angiotensin I sufficient to raise mean arterial blood pressure by 38 mm Hg. After the responsiveness of a given rat to angiotensin I was established, the named compound at 20 μmol/kg (drug dissolved in 0.15 ml of H2 O plus 10 μl of 1N NaHCO3), was given via a stomach tube. At timed intervals, the effects of 400 ng/kg of angiotensin I on mean arterial blood pressure were tested. Results are shown below:
Intravenous Effectiveness of N^α -[3-(N^α -benzoylglycylthio)-2-D-methylpropanoyl)-L-proline. Anesthetized rats were prepared as described in Example 20. The animals were administered the named compound via a femoral vein in 15 μl of 0.01 N sodium bicarbonate, after the control response to 400 ng/kg of angiotensin I was measured. […]

[3] = tested on: mean arterial blood pressure response to angiotensin I; assay: Oral effectiveness: blood pressure response to angiotensin I in anesthetized rats; assay type: in vivo, rat; conditions: angiotensin I 400 ng/ml in 20 μl of 0.9 g % NaCl (table: 400 ng/kg); control response before drug
Description: Rats (210-290 g body weight) were fasted overnight and then anesthetized with intraperitoneal pentobarbital, 50-60 mg/kg. Tracheostomy was performed and the animals were ventilated mechanically. A cannula was inserted into a femoral vein for injection of angiotensin I, and a second cannula was inserted into a common carotid artery for direct measurement of arterial blood pressure. Heparin, 1,000 units, was injected via the femoral vein to prevent coagulation. Blood pressure was measured with a pressure transducer connected to a polygraph. The rats were injected with 400 ng/ml of angiotensin I in 20 μl of 0.9 g % NaCl; an amount of angiotensin I sufficient to raise mean arterial blood pressure by 38 mm Hg. After the responsiveness of a given rat to angiotensin I was established, the named compound at 20 μmol/kg (drug dissolved in 0.15 ml of H2 O plus 10 μl of 1N NaHCO3), was given via a stomach tube. At timed intervals, the effects of 400 ng/kg of angiotensin I on mean arterial blood pressure were tested.

T1 sequence (P12821 30-1232 limits assumed): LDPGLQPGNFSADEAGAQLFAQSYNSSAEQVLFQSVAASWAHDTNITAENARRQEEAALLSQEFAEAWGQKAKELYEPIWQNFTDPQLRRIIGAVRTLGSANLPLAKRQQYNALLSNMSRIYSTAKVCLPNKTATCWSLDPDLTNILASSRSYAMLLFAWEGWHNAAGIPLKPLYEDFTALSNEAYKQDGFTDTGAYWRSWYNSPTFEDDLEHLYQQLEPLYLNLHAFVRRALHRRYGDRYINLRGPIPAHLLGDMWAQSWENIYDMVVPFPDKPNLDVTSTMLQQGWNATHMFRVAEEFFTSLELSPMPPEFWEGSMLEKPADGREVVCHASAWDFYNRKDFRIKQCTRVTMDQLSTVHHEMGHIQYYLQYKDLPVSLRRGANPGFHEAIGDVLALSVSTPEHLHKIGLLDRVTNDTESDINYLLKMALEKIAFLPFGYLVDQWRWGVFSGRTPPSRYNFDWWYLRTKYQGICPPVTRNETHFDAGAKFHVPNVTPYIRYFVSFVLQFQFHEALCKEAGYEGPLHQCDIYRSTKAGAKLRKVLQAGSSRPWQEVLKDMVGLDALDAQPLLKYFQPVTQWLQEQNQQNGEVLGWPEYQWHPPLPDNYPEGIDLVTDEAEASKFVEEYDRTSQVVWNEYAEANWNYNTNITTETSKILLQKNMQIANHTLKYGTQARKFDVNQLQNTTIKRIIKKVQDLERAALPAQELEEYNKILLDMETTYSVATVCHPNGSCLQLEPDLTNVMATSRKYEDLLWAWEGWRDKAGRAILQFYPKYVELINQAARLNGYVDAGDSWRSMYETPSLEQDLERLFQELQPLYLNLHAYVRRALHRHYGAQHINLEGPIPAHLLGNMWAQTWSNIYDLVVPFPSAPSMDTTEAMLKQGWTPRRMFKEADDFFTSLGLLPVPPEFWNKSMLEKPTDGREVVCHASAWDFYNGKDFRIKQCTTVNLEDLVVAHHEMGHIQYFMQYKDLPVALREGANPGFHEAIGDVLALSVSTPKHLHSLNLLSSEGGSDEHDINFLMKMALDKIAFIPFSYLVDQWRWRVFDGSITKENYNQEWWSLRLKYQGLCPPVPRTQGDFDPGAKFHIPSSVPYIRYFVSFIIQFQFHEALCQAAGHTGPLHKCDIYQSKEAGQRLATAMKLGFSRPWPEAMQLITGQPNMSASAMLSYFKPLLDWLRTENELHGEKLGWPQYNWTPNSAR

IC50 [1] | Compound | Blood pressure response to angiotensin I after intravenous administration (in words) [2] | Increase of mean arterial blood pressure by angiotensin I [3]
7.5 nM | C[C@H](CSC(=O)CNC(=O)c1ccccc1)C(=O)N1CCC[C@H]1C(=O)O [Example 13, N^α -[3-(N^Δ -benzoylglycylthio)-2-D-methylpropanoyl]-L-proline] | rapid decrease of blood pressure response to angiotensin I, 400 ng/kg followed by a gradual rise to the pretreatment level of responsiveness | –
– | angiotensin I: decapeptide angiotensin I, having the sequence AspArgValTyrlleHisProPheHisLeu (DRVYIHPFHL; Angiotensin-1; UniProt P01019 25-34, looked up) | – | 38 mm Hg
